Experimental data: PubChem BioAssay AID1963873 (Molecular Pharmacology Branch, DTP, NCI, 2024)

Tested on: 276233-004-R-J1-PDC KRAS spheroids with HUVEC/MSC, viability
Experiment: Anticancer human tumor 276233-004-R-J1-PDC patient-derived colon adenocarcinoma cell line growth inhibition [KRAS2]
Details: for viability, T/C: stronger effect = lower value
Summary of the method: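 Combination screen of spheroid viability in tumor-cell co-cultures with endothelial (HUVEC) and mesenchymal stem cell stroma. Each agent was tested in half-log dilutions, topping at clinical Cmax or at 10 microM without a known Cmax.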

[1] = curve of first compound, second compound 0.1 µM
[2] = curve of first compound, second compound 0.316 µM
[3] = curve of first compound, second compound 1 µM
[4] = curve of first compound, second compound 3.16 µM
[5] = second compound 0.1 µM, first compound 0.0316 µM
[6] = second compound 0.1 µM, first compound 0.1 µM
[7] = second compound 0.1 µM, first compound 0.316 µM
[8] = second compound 0.1 µM, first compound 1 µM
[9] = second compound 0.316 µM, first compound 0.0316 µM
[10] = second compound 0.316 µM, first compound 0.1 µM
[11] = second compound 0.316 µM, first compound 0.316 µM
[12] = second compound 0.316 µM, first compound 1 µM
[13] = second compound 1 µM, first compound 0.0316 µM
[14] = second compound 1 µM, first compound 0.1 µM
[15] = second compound 1 µM, first compound 0.316 µM
[16] = second compound 1 µM, first compound 1 µM
[17] = second compound 3.16 µM, first compound 0.0316 µM
[18] = second compound 3.16 µM, first compound 0.1 µM
[19] = second compound 3.16 µM, first compound 0.316 µM
[20] = second compound 3.16 µM, first compound 1 µM
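Also: cells exposed to agents for seven days before viability read.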
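For viability, T/C in this document: 100% = DMSO vehicle control wells and lower values mean fewer viable cells.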

Compound | viability, T/C (compound 0.1 µM) | IC50 (curve of compound) | IC50 [1] | IC50 [2] | IC50 [3] | IC50 [4] | viability, T/C [5] | viability, T/C [6] | viability, T/C [7] | viability, T/C [8] | viability, T/C [9] | viability, T/C [10] | viability, T/C [11] | viability, T/C [12] | viability, T/C [13] | viability, T/C [14] | viability, T/C [15] | viability, T/C [16] | viability, T/C [17] | viability, T/C [18] | further results
Cn1ncnc1[C@H]1c2n[nH]c(=O)c3cc(F)cc(c23)N[C@@H]1c1ccc(F)cc1 | 102% [middle of 5 runs] | > 100 nM |  |  |  |  |  |  |  |  |  |  |  |  |  |  |  |  |  |  | viability, T/C (compound 0.000316 µM): 96.7% [middle of 5 runs]; viability, T/C (compound 0.001 µM): 101% [middle of 5 runs]
CCN1CCN(Cc2ccc(Nc3ncc(F)c(-c4cc(F)c5nc(C)n(C(C)C)c5c4)n3)nc2)CC1 + C=CC(=O)N1CCN(c2nc(OCC3CCCN3C)nc3c2CCN(c2cccc4cccc(C)c24)C3)CC1CC#N |  |  | > 1000 nM | > 1000 nM | > 1000 nM | 59.6 nM | 86% | 81% | 97% | 96.4% | 77.4% | 86% | 78% | 90.7% | 96.5% | 87.4% | 66.2% | 110% | 65.9% | 39.6% | IC50 (curve of first compound, second compound 0.0316 µM): > 1000 nM; viability, T/C (second compound 0.0316 µM, first compound 0.00316 µM): 102%; viability, T/C (second compound 0.0316 µM, first compound 0.01 µM): 87%; viability, T/C (second compound 0.0316 µM, first compound 0.0316 µM): 87.1%; viability, T/C (second compound 0.0316 µM, first compound 0.1 µM): 69.2%; viability, T/C (second compound 0.0316 µM, first compound 0.316 µM): 95.5%; viability, T/C (second compound 0.0316 µM, first compound 1 µM): 112%; viability, T/C (second compound 0.1 µM, first compound 0.00316 µM): 109%; viability, T/C (second compound 0.1 µM, first compound 0.01 µM): 86.4%; viability, T/C (second compound 0.316 µM, first compound 0.00316 µM): 95.1%; viability, T/C (second compound 0.316 µM, first compound 0.01 µM): 83.7%; viability, T/C (second compound 1 µM, first compound 0.00316 µM): 81.4%; viability, T/C (second compound 1 µM, first compound 0.01 µM): 83.7%; viability, T/C (second compound 3.16 µM, first compound 0.00316 µM): 56.5%; viability, T/C (second compound 3.16 µM, first compound 0.01 µM): 65.8%; viability, T/C [19]: 43.5%; viability, T/C [20]: 26.5%
CCNC(=O)CC1N=C(c2ccc(Cl)cc2)c2cc(OC)ccc2-n2c(C)nnc21 (stereo not drawn) + COc1cc2nc(C)nc(NC(C)c3cc(N)cc(C(F)(F)F)c3)c2cc1OC1CCOC1 |  |  | > 10000 nM | 2460 nM | 1190 nM | 2340 nM | 101% | 67.1% | 61.4% | 55% | 94.6% | 80.2% | 69.5% | 54.5% | 84.7% | 77.7% | 60.3% | 42.7% | 62.3% | 69.7% | IC50 (curve of first compound, second compound 10 µM): < 31.6 nM; viability, T/C (second compound 0.1 µM, first compound 3.16 µM): 50.4%; viability, T/C (second compound 0.1 µM, first compound 10 µM): 49.2%; viability, T/C (second compound 0.316 µM, first compound 3.16 µM): 45.7%; viability, T/C (second compound 0.316 µM, first compound 10 µM): 48.2%; viability, T/C (second compound 1 µM, first compound 3.16 µM): 44%; viability, T/C (second compound 1 µM, first compound 10 µM): 34.4%; viability, T/C [19]: 62.2%; viability, T/C [20]: 50.8%; viability, T/C (second compound 3.16 µM, first compound 3.16 µM): 46%; viability, T/C (second compound 3.16 µM, first compound 10 µM): 43.2%; viability, T/C (second compound 10 µM, first compound 0.0316 µM): 31.6%; viability, T/C (second compound 10 µM, first compound 0.1 µM): 33.9%; viability, T/C (second compound 10 µM, first compound 0.316 µM): 22.6%; viability, T/C (second compound 10 µM, first compound 1 µM): 12.9%; viability, T/C (second compound 10 µM, first compound 3.16 µM): 11.1%; viability, T/C (second compound 10 µM, first compound 10 µM): 8.17%
COc1cc2nccc(Oc3ccc(NC(=O)C4(C(=O)Nc5ccc(F)cc5)CC4)cc3)c2cc1OC | 89.3% [middle of 5 runs] | > 10000 nM |  |  |  |  |  |  |  |  |  |  |  |  |  |  |  |  |  |  | viability, T/C (compound 0.0316 µM): 93.2% [middle of 5 runs]; viability, T/C (compound 3.16 µM): 93.1% [middle of 5 runs]
